Data as given in patent publication US20230047816A1 (priority 2018, published 2023).

These compounds were tested against Recombinant full length human PFKFB3 (Homo sapiens, UniProt Q16875) (assay: PFKFB3 kinase activity assay (ADP production, ADP-Glo)).
Chain of Recombinant full length human PFKFB3 (Q16875 whole entry): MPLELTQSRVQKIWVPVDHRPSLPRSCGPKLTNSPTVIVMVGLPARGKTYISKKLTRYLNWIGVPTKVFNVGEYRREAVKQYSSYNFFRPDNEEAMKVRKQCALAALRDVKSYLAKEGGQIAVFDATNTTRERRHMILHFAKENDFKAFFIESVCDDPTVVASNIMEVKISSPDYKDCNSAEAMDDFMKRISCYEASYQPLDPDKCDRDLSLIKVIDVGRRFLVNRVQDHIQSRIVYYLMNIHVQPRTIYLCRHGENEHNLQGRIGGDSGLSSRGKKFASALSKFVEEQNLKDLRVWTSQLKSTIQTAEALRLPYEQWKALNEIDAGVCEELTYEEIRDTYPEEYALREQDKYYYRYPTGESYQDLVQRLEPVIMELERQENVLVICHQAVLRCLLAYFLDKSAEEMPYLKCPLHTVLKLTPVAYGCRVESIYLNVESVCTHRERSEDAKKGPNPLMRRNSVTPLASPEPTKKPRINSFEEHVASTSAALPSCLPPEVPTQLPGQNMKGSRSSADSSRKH
Procedure: Recombinant full length human PFKFB3 (or PFKFB4) protein purified from Sf9 baculoviral system was acquired from SignalChem (Cat. #P323-30G or P324-30G). ATP, Fructose-6-Phosphate and other chemicals were from Sigma-Aldrich. The kinase activity of the PFKFB3 (PFKFB4) protein was detected by measuring production of ADP from ATP in the presence of the Fructose-6-Phosphate substrate. The kinase reactions were assembled in 384 well plates in a total volume of 25 μL. Test compounds were serially diluted in DMSO. Reactions were set up by first mixing test compounds with enzyme and pre-incubating for 15 min. The ATP and Fructose-6-Phosphate substrates were next added to initiate the kinase reactions.
The compounds of invention listed below in this example were tested at various concentrations (which also added 1% DMSO from compounds, to the final solution) as described below. The kinase reactions were allowed to proceed for 1 h at room temperature. Aliquots of the reaction mixtures (5 μL) were transferred to fresh white 384 well plates and mixed with 5 μL of the ADP-Glo reagent (Promega), followed by incubation for 30 min. The luminescent Kinase Detection reagent was added (10 μL) and, following additional incubation for 15 min, the plates were read on luminescence plate reader (Analyst HT). Positive (100%-inhibition) and negative (0%-inhibition) control samples were assembled in each assay plate and were used to calculate percent inhibition values of test compounds. All experiments were performed in duplicate.
In the case of CS(=O)(=O)NC(=O)c1ccc2c(c1)C(=O)N(c1cc(-c3ccccc3)ccc1C(=O)O)C2 [Compound 104, 3-(6-Methanesulfonylaminocarbonyl-1-oxo-1,3-dihydroisoindol-2-yl)biphenyl-4-carboxylic Acid], the IC50 is reported as under 0.5 µM. In the case of COC(=O)c1ccc(-c2ccc(F)c(F)c2)cc1N1Cc2ccc(C(=O)NS(C)(=O)=O)cc2C1=O [Compound 105, 3′,4′-Difluoro-3-(6-methanesulfonylaminocarbonyl-1-oxo-1,3-dihydroisoindol-2-yl)biphenyl-4-carboxylic acid methyl ester], the IC50 is reported as under 20 µM. CS(=O)(=O)NC(=O)c1ccc2c(c1)C(=O)N(c1cc(-c3ccc(F)c(F)c3)ccc1C(=O)O)C2 [Compound 106, 3′,4′-Difluoro-3-(6-methanesulfonylaminocarbonyl-1-oxo-1,3-dihydroisoindol-2-yl)biphenyl-4-carboxylic Acid] gave an IC50 of 2 to 5 µM. CS(=O)(=O)NC(=O)c1ccc2c(c1)C(=O)N(c1cc(-c3ccc(F)c(F)c3)ccc1C(N)=O)C2 [Compound 107, 3′,4′-Difluoro-3-(6-methanesulfonylaminocarbonyl-1-oxo-1,3-dihydroisoindol-2-yl)biphenyl-4-carboxylic acid amide] was tested, and the IC50 was under 20 µM. For CN(C)CCOC(=O)c1ccc(-c2ccc(F)c(F)c2)cc1N1Cc2ccc(C(=O)NS(C)(=O)=O)cc2C1=O [Compound 108, 3′,4′-Difluoro-3-(6-methanesulfonylaminocarbonyl-1-oxo-1,3-dihydroisoindol-2-yl)biphenyl-4-carboxylic acid 2-dimethylamino-ethyl ester], the IC50 was under 20 µM. CS(=O)(=O)NC(=O)c1ccc2c(c1)C(=O)N(c1cc(-c3ccc(F)c(F)c3)ccc1C(=O)OCCN1CCCC1)C2 [Compound 109, 3′,4′-Difluoro-3-(6-methanesulfonylaminocarbonyl-1-oxo-1,3-dihydroisoindol-2-yl)biphenyl-4-carboxylic acid 2-pyrrolidin-1-yl-ethyl ester] was tested, and the IC50 was under 20 µM. Work on COC(=O)c1ccc(-c2ccc(F)c(F)c2)cc1N1Cc2ccc(-c3c[nH]nn3)cc2C1=O [Compound 110, 3′,4′-Difluoro-3-[1-oxo-6-(1H-[1,2,3]triazol-4-yl)-1,3-dihydroisoindol-2-yl]biphenyl-4-carboxylic acid methyl ester] yielded an IC50 of under 20 µM. O=C(O)c1ccc(-c2ccc(F)c(F)c2)cc1N1Cc2ccc(-c3c[nH]nn3)cc2C1=O [Compound 111, 3′,4′-Difluoro-3-[1-oxo-6-(1H-[1,2,3]triazol-4-yl)-1,3-dihydroisoindol-2-yl]biphenyl-4-carboxylic Acid] gave an IC50 of under 0.5 µM. With CN(C)CCOC(=O)c1ccc(-c2ccc(F)c(F)c2)cc1N1Cc2ccc(-c3c[nH]nn3)cc2C1=O [Compound 112, 3′,4′-Difluoro-3-[1-oxo-6-(1H-[1,2,3]triazol-4-yl)-1,3-dihydroisoindol-2-yl]biphenyl-4-carboxylic acid 2-dimethylamino-ethyl ester] the IC50 was under 20 µM. Compound NC(=O)c1ccc(-c2ccc(F)c(F)c2)cc1N1Cc2ccc(-c3c[nH]nn3)cc2C1=O [Compound 113, 3′,4′-Difluoro-3-[1-oxo-6-(1H-[1,2,3]triazol-4-yl)-1,3-dihydroisoindol-2-yl]biphenyl-4-carboxylic acid amide] has an IC50 of under 20 µM. O=C(OCCN1CCCC1)c1ccc(-c2ccc(F)c(F)c2)cc1N1Cc2ccc(-c3c[nH]nn3)cc2C1=O [Compound 115, 3′,4′-Difluoro-3-[1-oxo-6-(1H-[1,2,3]triazol-4-yl)-1,3-dihydroisoindol-2-yl]biphenyl-4-carboxylic acid 2-pyrrolidin-1-yl-ethyl ester] gave an IC50 of under 20 µM. Cc1oc(=O)oc1COC(=O)c1ccc(-c2ccc(F)c(F)c2)cc1N1Cc2ccc(-c3c[nH]nn3)cc2C1=O [Compound 116, 3′,4′-Difluoro-3-[1-oxo-6-(1H-[1,2,3]triazol-4-yl)-1,3-dihydro-isoindol-2-yl]-biphenyl-4-carboxylic acid (5-methyl-2-oxo-[1,3]dioxol-4-yl)methyl ester] showed an IC50 of 5 to 20 µM. CC(C)(C)OC(=O)c1ccc(-c2ccc(F)c(F)c2)cc1N1Cc2ccc(-c3c[nH]nn3)cc2C1=O [Compound 117, 3′,4′-Difluoro-3-[1-oxo-6-(1H-[1,2,3]triazol-4-yl)-1,3-dihydro-isoindol-2-yl]-biphenyl-4-carboxylic acid tert-butyl ester] was tested, and the IC50 was under 20 µM. In the case of CC(C)OC(=O)c1ccc(-c2ccc(F)c(F)c2)cc1N1Cc2ccc(-c3c[nH]nn3)cc2C1=O [Compound 118, 3′,4′-Difluoro-3-[1-oxo-6-(1H-[1,2,3]triazol-4-yl)-1,3-dihydro-isoindol-2-yl]-biphenyl-4-carboxylic acid isopropyl ester], the IC50 is reported as under 20 µM. NC(=O)c1ccc(-c2ccc(F)c(F)c2)cc1N1Cc2ccc(C(=O)O)cc2C1=O [Compound 119, 2-(4-Carbamoyl-3′,4′-difluorobiphenyl-3-yl)-3-oxo-2,3-dihydro-1H-isoindole-5-carboxylic acid] gave an IC50 of 5 to 20 µM. CN(C)CCOC(=O)c1ccc(-c2ccc(F)c(F)c2)cc1N1Cc2ccc(C(=O)O)cc2C1=O [Compound 120, 2-[4-(2-Dimethylamino-ethoxycarbonyl)-3′,4′-difluorobiphenyl-3-yl]-3-oxo-2,3-dihydro-1H-isoindole-5-carboxylic Acid] was tested, and the IC50 was 5 to 20 µM. For COC(=O)c1ccc(-c2ccc(F)c(F)c2)cc1N1Cc2ccc(-n3cnnn3)cc2C1=O [Compound 121, 3′,4′-Difluoro-3-(1-oxo-6-tetrazol-1-yl-1,3-dihydroisoindol-2-yl)biphenyl-4-carboxylic acid methyl ester], the IC50 was under 20 µM. O=C(O)c1ccc(-c2ccc(F)c(F)c2)cc1N1Cc2ccc(-n3cnnn3)cc2C1=O [Compound 122, 3′,4′-Difluoro-3-(1-oxo-6-tetrazol-1-yl-1,3-dihydroisoindol-2-yl)biphenyl-4-carboxylic Acid] showed an IC50 of 0.5 to 2 µM. With CCCCOC(=O)c1ccc2c(c1)C(=O)N(c1cc(-c3ccc(F)c(F)c3)ccc1C(N)=O)C2 [Compound 123, 2-(4-Carbamoyl-3′,4′-difluorobiphenyl-3-yl)-3-oxo-2,3-dihydro-1H-isoindole-5-carboxylic acid butyl ester] the IC50 was under 20 µM. For CN(C)CCCOC(=O)c1ccc(-c2ccc(F)c(F)c2)cc1N1Cc2ccc(C(=O)NS(C)(=O)=O)cc2C1=O [Compound 124, 3′,4′-Difluoro-3-(6-methanesulfonylaminocarbonyl-1-oxo-1,3-dihydro-isoindol-2-yl)-biphenyl-4-carboxylic acid 3-dimethylamino-propyl ester], the IC50 was under 20 µM. CC(C)OC(=O)c1ccc(-c2ccc(F)c(F)c2)cc1N1Cc2ccc(C(=O)NS(C)(=O)=O)cc2C1=O [Compound 125, 3′,4′-Difluoro-3-(6-methanesulfonylaminocarbonyl-1-oxo-1,3-dihydro-isoindol-2-yl)-biphenyl-4-carboxylic acid isopropyl ester] was tested, and the IC50 was under 20 µM. In the case of O=C(O)c1ccc2c(c1)C(=O)N(c1cc(-c3ccc(F)c(F)c3)ccc1C(=O)O)C2 [Compound 126, 2-(4-Carboxy-3′,4′-difluoro-biphenyl-3-yl)-3-oxo-2,3-dihydro-1H-isoindole-5-carboxylic acid], the IC50 is reported as under 20 µM. COC(=O)c1ccc2c(c1)C(=O)N(c1cc(-c3ccc(F)c(F)c3)ccc1C(=O)OC)C2 [Compound 127, 2-(3′,4′-Difluoro-4-methoxycarbonylbiphenyl-3-yl)-3-oxo-2,3-dihydro-1H-isoindole-5-carboxylic acid methyl ester] showed an IC50 of under 20 µM. Work on CCCCOC(=O)c1ccc2c(c1)C(=O)N(c1cc(-c3ccc(F)c(F)c3)ccc1C(=O)O)C2 [Compound 128, 2-(4-Carboxy-3′,4′-difluoro-biphenyl-3-yl)-3-oxo-2,3-dihydro-1H-isoindole-5-carboxylic acid butyl ester] yielded an IC50 of 5 to 20 µM. CN(C)CCOC(=O)c1ccc2c(c1)C(=O)N(c1cc(-c3ccc(F)c(F)c3)ccc1C(=O)O)C2 [Compound 129, 2-(4-Carboxy-3′,4′-difluorobiphenyl-3-yl)-3-oxo-2,3-dihydro-1H-isoindole-5-carboxylic acid 2-dimethylamino-ethyl ester] was tested, and the IC50 was under 20 µM. For CC(=O)Nc1ccc2c(c1)C(=O)N(c1cc(-c3ccc(F)c(F)c3)ccc1C(=O)O)C2 [Compound 130, 3-(6-Acetylamino-1-oxo-1,3-dihydroisoindol-2-yl)-3′,4′-difluoro-biphenyl-4-carboxylic Acid], the IC50 was under 20 µM. CS(=O)(=O)Nc1ccc2c(c1)C(=O)N(c1cc(-c3ccc(F)c(F)c3)ccc1C(=O)O)C2 [Compound 131, 3′,4′-Difluoro-3-(6-methanesulfonylamino-1-oxo-1,3-dihydro-isoindol-2-yl)-biphenyl-4-carboxylic Acid] gave an IC50 of under 20 µM. Work on Cc1ccc(S(=O)(=O)Nc2ccc3c(c2)C(=O)N(c2cc(-c4ccc(F)c(F)c4)ccc2C(=O)O)C3)cc1 [Compound 132, 3′,4′-Difluoro-3-[1-oxo-6-(toluene-4-sulfonylamino)-1,3-dihydro-isoindol-2-yl]-biphenyl-4-carboxylic acid] yielded an IC50 of 5 to 20 µM. Work on N#Cc1c(N2C(=O)c3ccc(C(=O)O)cc3C2=O)sc(-c2ccccc2)c1-c1ccccc1 [Compound 133, 2-(3-Cyano-4,5-diphenylthiophen-2-yl)-1,3-dioxo-2,3-dihydro-1H-isoindole-5-carboxylic acid] yielded an IC50 of under 0.5 µM. For O=C(NS(=O)(=O)c1ccccc1)c1ccc2c(c1)C(=O)N(c1ccc(-c3ccccc3)cc1-c1nnn[nH]1)C2=O [Compound 135, N-(Benzenesulfonyl)-2-(3-(1H-tetrazol-5-yl)-[1,1′-biphenyl]-4-yl)-1,3-dioxo-2,3-dihydro-1H-isoindole-5-carboxamide], the IC50 was 5 to 20 µM. COc1ccc(-c2c(C)sc(N3C(=O)c4ccc(C(=O)N[C@@H](Cc5ccc(O)cc5)C(=O)O)cc4C3=O)c2C#N)cc1 [Compound 136, (2S)-2-({2-[3-Cyano-4-(4-methoxyphenyl)-5-methyl-thiophen-2-yl]-1,3-dioxo-2,3-dihydro-1H-isoindole-5-carbonyl}-amino)-3-(4-hydroxyphenyl)propanoic acid] showed an IC50 of 2 to 5 µM. COc1ccc(-c2c(C)sc(N3C(=O)c4ccc(C(=O)N[C@@H](Cc5ccccc5)C(=O)O)cc4C3=O)c2C#N)cc1 [Compound 137, (2S)-2-({2-[3-Cyano-4-(4-methoxyphenyl)-5-methyl-thiophen-2-yl]-1,3-dioxo-2,3-dihydro-1H-isoindole-5-carbonyl}-amino)-3-phenylpropanoic acid] was tested, and the IC50 was 0.5 to 2 µM.
